According to PMC5458211, “Mitochondrial VDAC1-based peptides: Attacking oncogenic properties in glioblastoma” (Oncotarget, 2017):
Non-standard residues stand in square brackets, D forms with d. Residues, ends and D or L forms follow the SMILES beside them.

Tested on: Cyto c release in U-87MG cells
Assay: Cytochrome c release by immunofluorescence
Format: cell-based, human
Conditions: 10 μM, 3 h, serum-free medium
Description: Figure 2 Mode of action of VDAC1-based peptides – interacting with- and detaching HK, releasing Cyto c, decreasing ATP level and inducing apoptosis A. Purified HK-II was fluorescently labeled using the NanoTemper protein-labeling Kit BLUE. […] Then, 3-5 μl of the samples were loaded into MST-grade glass capillaries and thermophoresis was measured using a Monolith-NT115 apparatus, as described in Materials and methods available online in Supplemental information. […] The final DMSO concentration in control and peptide-treated cells was 0.07%. Fixed cells were visualized using confocal microscopy (Olympus 1×81), as described in Materials and Methods available online in Supplemental information. […] The levels of HK in the supernatants were quantified and are presented as relative units. D. D-ΔN-Ter-Antp induces mitochondrial inner membrane depolarization analyzed as described in Materials and Methods available online in Supplemental information. […] Cells then were analyzed for Δψ using TMRM. Δψ is presented as percentage of control. […] Release of Cyto c from the mitochondria was analyzed by immunostaining using anti-Cyto c antibodies and confocal microscopy (Olympus 1×81) as described in Materials and Methods available online in Supplemental information. […] Quantification of apoptosis in control and peptide's treated cells are presented bellow the images. […]

SMILES	Cyto c release
CC[C@H](C)[C@H](NC(=O)[C@H](C)NC(=O)[C@@H](N)Cc1c[nH]cn1)C(=O)N[C@@H](Cc1ccc(O)cc1)C(=O)N1CCC[C@H]1C(=O)N[C@@H](CCCNC(=N)N)C(=O)N[C@@H](Cc1c[nH]cn1)C(=O)N[C@@H](CO)C(=O)N[C@@H](Cc1c[nH]c2ccccc12)C(=O)N[C@H](C(=O)N[C@@H](Cc1c[nH]c2ccccc12)C(=O)N[C@@H](CCC(=O)O)C(=O)N[C@H](CCCCN)C(=O)N[C@H](CCCCN)C(=O)N[C@H](CC(C)C)C(=O)N[C@H](CCC(=O)O)C(=O)N[C@@H](C(=O)N[C@H](C)C(=O)N[C@@H](C(=O)N[C@H](CC(N)=O)C(=O)N[C@H](CC(C)C)C(=O)N[C@H](C)C(=O)N[C@H](Cc1c[nH]c2ccccc12)C(=O)N[C@@H](C(=O)N[C@H](C)C(=O)NCC(=O)N[C@H](CC(N)=O)C(=O)N[C@H](CO)C(=O)N[C@H](CC(N)=O)C(=O)N[C@@H](CCCCN)C(=O)N[C@@H](Cc1c[nH]c2ccccc12)C(=O)N[C@H](C(=O)N[C@@H](Cc1c[nH]c2ccccc12)C(=O)N[C@@H](CCCCN)C(=O)O)[C@@H](C)O)[C@H](C)O)C(C)C)[C@H](C)O)[C@@H](C)O [Tf-D-LP4]	partial Cyto c release
CC[C@@H](C)[C@@H](NC(=O)[C@@H](CCCCN)NC(=O)[C@H](NC(=O)[C@@H](CCC(N)=O)NC(=O)[C@@H](CCCNC(=N)N)NC(=O)[C@@H](CC(C)C)NC(=O)CNC(=O)[C@@H](Cc1ccccc1)NC(=O)CNC(=O)[C@@H](Cc1ccc(O)cc1)NC(=O)CNC(=O)[C@@H](CCCCN)NC(=O)[C@H](NC(=O)[C@@H](Cc1ccccc1)NC(=O)[C@H](NC(=O)[C@@H](CC(=O)O)NC(=O)[C@H](N)CCCNC(=N)N)C(C)C)[C@H](C)O)[C@H](C)CC)C(=O)N[C@H](Cc1c[nH]c2ccccc12)C(=O)N[C@H](Cc1ccccc1)C(=O)N[C@H](CCC(N)=O)C(=O)N[C@H](CC(N)=O)C(=O)N[C@H](CCCNC(=N)N)C(=O)N[C@H](CCCNC(=N)N)C(=O)N[C@H](CCSC)C(=O)N[C@H](CCCCN)C(=O)N[C@H](Cc1c[nH]c2ccccc12)C(=O)N[C@H](CCCCN)C(=O)N[C@H](CCCCN)C(=O)O [D-ΔN-Ter-Antp] (H-[dR][dD][dV][dF][dT][dK]G[dY]G[dF]G[dL][dR][dQ][dI][dK][dI][dW][dF][dQ][dN][dR][dR][dM][dK][dW][dK][dK]-OH; N-terminus and C-terminus assumed)	partial Cyto c release
